We go through 8 compounds from patent publication US11958844B2, “1,3,4-oxadiazole derivative compounds as histone deacetylase 6 inhibitor, and pharmaceutical composition comprising the same” (Chong Kun Dang Pharmaceutical Corp., priority 2018, dated 2024).

What is called IC50 is the point on the concentration scale where inhibition reaches its midpoint.

The target of this assay is T1, HDAC6 human recombinant (Homo sapiens, UniProt Q9UBN7).
T1 sequence (Q9UBN7 1-1215): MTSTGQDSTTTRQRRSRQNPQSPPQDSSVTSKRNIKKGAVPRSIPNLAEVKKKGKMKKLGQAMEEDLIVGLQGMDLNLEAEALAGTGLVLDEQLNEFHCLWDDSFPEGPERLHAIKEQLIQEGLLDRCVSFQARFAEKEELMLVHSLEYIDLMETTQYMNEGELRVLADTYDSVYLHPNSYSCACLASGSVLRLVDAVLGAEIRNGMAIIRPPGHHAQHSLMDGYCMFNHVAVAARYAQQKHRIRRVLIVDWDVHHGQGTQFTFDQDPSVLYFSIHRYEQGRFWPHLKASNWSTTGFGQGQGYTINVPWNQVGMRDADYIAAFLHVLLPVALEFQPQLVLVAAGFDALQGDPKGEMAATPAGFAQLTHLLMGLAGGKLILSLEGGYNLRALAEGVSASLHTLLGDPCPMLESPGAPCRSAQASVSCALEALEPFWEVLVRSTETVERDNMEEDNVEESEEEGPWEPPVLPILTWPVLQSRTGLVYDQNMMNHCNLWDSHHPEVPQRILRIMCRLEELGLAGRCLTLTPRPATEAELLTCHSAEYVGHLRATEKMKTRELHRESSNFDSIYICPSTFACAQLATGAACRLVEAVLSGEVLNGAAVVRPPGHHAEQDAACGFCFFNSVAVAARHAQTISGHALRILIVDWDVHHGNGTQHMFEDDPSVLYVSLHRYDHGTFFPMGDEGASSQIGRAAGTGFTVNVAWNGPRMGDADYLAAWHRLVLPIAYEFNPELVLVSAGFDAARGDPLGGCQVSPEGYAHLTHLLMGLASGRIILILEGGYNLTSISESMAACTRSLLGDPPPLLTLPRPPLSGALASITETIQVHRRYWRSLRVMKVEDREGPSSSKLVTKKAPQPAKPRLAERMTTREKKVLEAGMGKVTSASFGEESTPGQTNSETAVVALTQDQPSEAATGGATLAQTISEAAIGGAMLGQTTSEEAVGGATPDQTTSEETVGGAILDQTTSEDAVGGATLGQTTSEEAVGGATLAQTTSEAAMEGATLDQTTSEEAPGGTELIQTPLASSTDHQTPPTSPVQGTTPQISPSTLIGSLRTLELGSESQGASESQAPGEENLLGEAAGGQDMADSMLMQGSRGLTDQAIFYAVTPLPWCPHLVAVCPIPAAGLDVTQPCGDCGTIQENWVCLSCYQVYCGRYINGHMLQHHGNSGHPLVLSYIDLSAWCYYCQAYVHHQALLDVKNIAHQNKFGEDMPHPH
The assay can be described thus: HDAC enzyme activity inhibition (in vitro), fluorimetric HDAC6 assay. It counts as biochemical. To be noted: samples at 0.1, 1, 10, 100 and 1000 nM, 37° C. 60 minutes, fluorescence Ex 390, Em 460. As for the experimental part: To identify this, HDAC1/6 enzyme selectivity and cell selectivity (HDAC1: histone acetylation/HDAC6: tubulin acetylation) were investigated accordingly.
An HDAC enzyme inhibitory ability of a test material was measured by means of HDAC1 Fluorimetric Drug Discovery Assay Kit (Enzolifesciences: BML-AK511) and HDAC6 human recombinant (Calbiochem: 382180). For an HDAC1 assay, samples were treated at a concentration of 100, 1000 and 10000 nM. For an HDAC6 assay, samples were treated at a concentration of 0.1, 1, 10, 100 and 1000 nM. After such sample treatment, a reaction was continued at 37° C. for 60 minutes, then treated with a developer, and then subjected to reaction at 37° C. for 30 minutes, after which fluorescence intensity (Ex 390, Em 460) was measured by means of FlexStation3 (Molecular device).
Take `O=c1cc(-c2nnc(C(F)F)o2)ccn1Cc1cccc(F)c1` [Compound 14, 4-(5-(difluoromethyl)-1,3,4-oxadiazole-2-yl)-1-(3-fluorobenzyl)pyridine-2(1H)-one]: the IC50 came out at 108 nM.

Turning to `CC(C)CCn1ccc(-c2nnc(C(F)F)o2)cc1=O` [Compound 53], the IC50 amounted to 388 nM.

For `O=c1cc(-c2nnc(C(F)(F)F)o2)ccn1Cc1cccc(F)c1` [Compound 31, 1-(3-fluorobenzyl)-4-(5-(trifluoromethyl)-1,3,4-oxadiazole-2-yl)pyridine-2(1H)-one], the IC50 was 1100 nM.

In the case of `O=c1cc(-c2nnc(C(F)F)o2)ccn1Cc1ccccc1F` [Compound 17, 4-(5-(difluoromethyl)-1,3,4-oxadiazole-2-yl)-1-(2-fluorobenzyl)pyridine-2(1H)-one], the IC50 was found to be 507 nM.

Consider `COc1ccc(OC)c(C(=O)Cn2ccc(-c3nnc(C(F)F)o3)cc2=O)c1` [Compound 24, 4-(5-(difluoromethyl)-1,3,4-oxadiazole-2-yl)-1-(2-(2,5-dimethoxyphenyl)-2-oxoethyl) pyridine-2(1H)-one], for which the IC50 came to 284 nM.

For the compound `CCn1ccc(-c2nnc(C(F)(F)F)o2)cc1=O` [Compound 49, 1-ethyl-4-(5-(trifluoromethyl)-1,3,4-oxadiazole-2-yl)pyridine-2(1H)-one], the concentration for half-maximal inhibition (IC50) was determined as 1590 nM.

Take `O=C(Cn1ccc(-c2nnc(C(F)(F)F)o2)cc1=O)OCc1ccccc1` [Compound 40, benzyl 2-(2-oxo-4-(5-(trifluoromethyl)-1,3,4-oxadiazole-2-yl)pyridine-1(2H)-yl)acetate]: the IC50 amounted to 945 nM.

In the case of `O=c1cc(-c2nnc(C(F)(F)F)o2)ccn1Cc1cc(F)ccc1F` [Compound 33, 1-(2,5-difluorobenzyl)-4-(5-(trifluoromethyl)-1,3,4-oxadiazole-2-yl)pyridine-2(1H)-one], the IC50 worked out at 1270 nM.
